Article PMC7464027, “Design of Curcumin and Flavonoid Derivatives with Acetylcholinesterase and Beta-Secretase Inhibitory Activities Using in Silico Approaches” (Molecules, 2020)

Key:
beta-secretase (BACE-1) = target: T1, beta-secretase (BACE-1) (Homo sapiens, UniProt P56817); assay: fluorescent BACE-1 activity detection kit (Sigma-Aldrich); assay type: biochemical
T1 construct: gene BACE1

[1] = target: Acetylcholinesterase (AChE) (Electrophorus electricus, UniProt O42275); assay: Ellman's assay with electric eel AChE; assay type: biochemical
Acetylcholinesterase (AChE), sequence (O42275 24-633): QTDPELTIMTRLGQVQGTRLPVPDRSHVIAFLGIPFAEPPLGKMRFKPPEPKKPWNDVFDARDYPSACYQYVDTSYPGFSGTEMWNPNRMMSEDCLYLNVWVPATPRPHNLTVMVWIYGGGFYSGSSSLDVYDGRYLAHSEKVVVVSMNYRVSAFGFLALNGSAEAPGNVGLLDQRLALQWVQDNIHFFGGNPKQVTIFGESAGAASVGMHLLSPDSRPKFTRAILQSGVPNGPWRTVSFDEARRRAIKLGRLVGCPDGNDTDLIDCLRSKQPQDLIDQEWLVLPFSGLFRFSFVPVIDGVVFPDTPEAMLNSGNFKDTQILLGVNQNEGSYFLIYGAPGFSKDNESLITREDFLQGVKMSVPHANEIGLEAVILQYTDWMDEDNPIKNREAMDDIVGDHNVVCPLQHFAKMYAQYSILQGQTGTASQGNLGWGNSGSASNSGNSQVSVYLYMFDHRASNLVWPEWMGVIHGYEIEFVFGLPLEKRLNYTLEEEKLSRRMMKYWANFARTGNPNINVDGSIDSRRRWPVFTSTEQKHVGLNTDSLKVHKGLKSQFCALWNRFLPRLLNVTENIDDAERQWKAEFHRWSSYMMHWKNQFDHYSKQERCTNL

T1 sequence (P56817 46-457): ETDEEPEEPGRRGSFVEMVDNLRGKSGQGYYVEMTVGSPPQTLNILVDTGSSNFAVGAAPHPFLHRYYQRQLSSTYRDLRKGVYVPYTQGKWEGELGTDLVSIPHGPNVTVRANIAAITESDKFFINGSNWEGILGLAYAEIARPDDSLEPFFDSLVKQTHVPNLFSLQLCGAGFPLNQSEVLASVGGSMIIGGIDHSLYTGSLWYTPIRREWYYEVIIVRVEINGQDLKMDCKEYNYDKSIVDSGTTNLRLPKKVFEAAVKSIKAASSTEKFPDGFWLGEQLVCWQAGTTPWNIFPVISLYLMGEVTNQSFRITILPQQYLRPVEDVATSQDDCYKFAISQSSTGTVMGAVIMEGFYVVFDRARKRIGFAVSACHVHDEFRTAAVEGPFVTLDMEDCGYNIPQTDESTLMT

`CCOc1cc(C(=O)O)c(C(=O)CCc2ccccc2)c(N(C)C)c1` [F9, 3-(dimethylamino)-5-ethoxy-2-(3-phenylpropanoyl)benzoic acid] gave an IC50 (beta-secretase (BACE-1)) of 1.85 ± 0.33 µM and an IC50 [1] of 30 ± 1.24 µM.

`CN(C)c1cccc(CCC(=O)c2cc(O)ccc2N(C)C)c1` [F24, 1-(2-(dimethylamino)-5-hydroxyphenyl)-3-(3-(dimethylamino)phenyl)propan-1-one] gave an IC50 (beta-secretase (BACE-1)) of 3.52 ± 0.77 µM and an IC50 [1] of 80.5 ± 3.07 µM.
